According to the NIST ThermoML archive (doi:10.1021/je200595b):
± gives the expanded uncertainty stated by the source.

Assay: excess molar enthalpy (molar enthalpy of mixing); xn = mol fraction of the nth substance listed
Settings: 298.15 K, 100 kPa, Liquid, Flow calorimetry

Compound | excess molar enthalpy (x2 = 0.05) | excess molar enthalpy (x2 = 0.1) | excess molar enthalpy (x2 = 0.15) | excess molar enthalpy (x2 = 0.2) | excess molar enthalpy (x2 = 0.25) | excess molar enthalpy (x2 = 0.3) | excess molar enthalpy (x2 = 0.35) | excess molar enthalpy (x2 = 0.4) | excess molar enthalpy (x2 = 0.45) | excess molar enthalpy (x2 = 0.5) | excess molar enthalpy (x2 = 0.6) | excess molar enthalpy (x2 = 0.65) | excess molar enthalpy (x2 = 0.7) | excess molar enthalpy (x2 = 0.75) | excess molar enthalpy (x2 = 0.8) | excess molar enthalpy (x2 = 0.85) | excess molar enthalpy (x2 = 0.9) | excess molar enthalpy (x2 = 0.95) | also measured
CC(=O)OC(C)=O [ethanoic anhydride] + CC(=O)O | – | – | – | – | – | – | – | – | – | – | – | – | – | – | – | – | – | – | excess molar enthalpy (x1 = 0.05): 0.0108 ± 0.000717 kcal/mol; excess molar enthalpy (x1 = 0.1): 0.0213 ± 0.0012 kcal/mol; excess molar enthalpy (x1 = 0.15): 0.032 ± 0.00167 kcal/mol; excess molar enthalpy (x1 = 0.2): 0.0423 ± 0.00215 kcal/mol; excess molar enthalpy (x1 = 0.25): 0.0519 ± 0.00263 kcal/mol; excess molar enthalpy (x1 = 0.3): 0.0607 ± 0.00311 kcal/mol; excess molar enthalpy (x1 = 0.35): 0.0688 ± 0.00359 kcal/mol; excess molar enthalpy (x1 = 0.4): 0.0758 ± 0.00382 kcal/mol; excess molar enthalpy (x1 = 0.45): 0.0813 ± 0.00406 kcal/mol; excess molar enthalpy (x1 = 0.5): 0.0851 ± 0.0043 kcal/mol; excess molar enthalpy (x1 = 0.55): 0.0875 ± 0.00454 kcal/mol; excess molar enthalpy (x1 = 0.6): 0.088 ± 0.00454 kcal/mol; excess molar enthalpy (x1 = 0.65): 0.0863 ± 0.0043 kcal/mol; excess molar enthalpy (x1 = 0.7): 0.0822 ± 0.00406 kcal/mol; excess molar enthalpy (x1 = 0.75): 0.0758 ± 0.00382 kcal/mol; excess molar enthalpy (x1 = 0.8): 0.0669 ± 0.00335 kcal/mol; excess molar enthalpy (x1 = 0.85): 0.055 ± 0.00287 kcal/mol; excess molar enthalpy (x1 = 0.9): 0.0402 ± 0.00215 kcal/mol; excess molar enthalpy (x1 = 0.95): 0.022 ± 0.0012 kcal/mol
CC(=O)OC(C)=O [ethanoic anhydride] + CCO | 0.0822 ± 0.00406 kcal/mol | 0.154 ± 0.00789 kcal/mol | 0.214 ± 0.0108 kcal/mol | 0.266 ± 0.0134 kcal/mol | 0.306 ± 0.0155 kcal/mol | 0.339 ± 0.0172 kcal/mol | 0.364 ± 0.0184 kcal/mol | 0.382 ± 0.0194 kcal/mol | 0.396 ± 0.0201 kcal/mol | 0.405 ± 0.0206 kcal/mol | 0.383 ± 0.0194 kcal/mol | 0.363 ± 0.0184 kcal/mol | 0.337 ± 0.017 kcal/mol | 0.306 ± 0.0155 kcal/mol | 0.268 ± 0.0136 kcal/mol | 0.221 ± 0.0112 kcal/mol | 0.164 ± 0.00837 kcal/mol | 0.0939 ± 0.00478 kcal/mol | –
CCOC(C)=O [ethyl acetate] + CCO | 0.0712 ± 0.00359 kcal/mol | 0.135 ± 0.00693 kcal/mol | 0.185 ± 0.00932 kcal/mol | 0.222 ± 0.0112 kcal/mol | 0.25 ± 0.0127 kcal/mol | 0.27 ± 0.0136 kcal/mol | 0.283 ± 0.0143 kcal/mol | 0.291 ± 0.0148 kcal/mol | 0.293 ± 0.0148 kcal/mol | 0.289 ± 0.0146 kcal/mol | 0.276 ± 0.0139 kcal/mol | 0.262 ± 0.0131 kcal/mol | 0.234 ± 0.0117 kcal/mol | 0.205 ± 0.0103 kcal/mol | 0.174 ± 0.00884 kcal/mol | 0.138 ± 0.00693 kcal/mol | 0.1 ± 0.00502 kcal/mol | 0.0554 ± 0.00287 kcal/mol | excess molar enthalpy (x2 = 0.55): 0.284 ± 0.0143 kcal/mol
